How the values were obtained:
PI3Kγ [1] = molecular target: T1, PI3Kγ (Homo sapiens, UniProt P48736); assay: PI3Kγ inhibitory activity (PI3-kinase HTRF assay, inhibition ratio); assay type: biochemical; conditions: 0.5 h, compound at 10 μmol/L; read-out: PI3Kg Inhibition Ratio % (10 μM)
Procedure: For each compound synthesized in the above Examples, PI3Kγ inhibitory activity was measured.
The PI3Kγ inhibitory activity of a compound was evaluated using PI3-kinase HTRF™ assay (Millipore) according to the following procedure:
To each well of a testing plate, 5 μL of a compound solution containing 10% DMSO (40 μmol/L as the concentration of the compound), 5 μL of a substrate solution (40 μmol/L phosphatidylinositol (4,5)-bisphosphate, 20 mmol/L MgCl2, 10 mmol/L DTT), and 5 μL of an enzyme solution (80 μg/mL PI-3 kinase y, 10 mmol/L MgCl2, 5 mmol/L DTT) were added, and then allowed to stand for 10 minutes.
Then, 5 μL of a reaction solution (40 μmol/L ATP, 10 mmol/L MgCl2, 5 mmol/L DTT) was added thereto. After reacting for 30 minutes at room temperature, 5 μL of a solution containing EDTA and biotinylated phosphatidylinositol (3,4,5)-triphosphate was added to quench the reaction.
5 μL of a detection reagent containing a europium-labeled anti-GST antibody, the GST-tagged PH domain, and allophycocyanin-labeled streptavidin was added thereto. After 18 hours, HTRF (excitation wavelength: 330 nm, measured wavelengths: 620 nm and 665 nm) was measured.
HTRF ratio was defined as the value obtained by dividing the amount of fluorescence obtained at the measured wavelength 665 nm by the amount of fluorescence obtained at 620 nm. The HTRF ratio in the absence of a compound was defined as 100% activity and the HTRF ratio in the absence of PI-3 kinase y was defined as 0% activity to calculate an inhibition ratio, which was defined as the PI3Kγ inhibitory activity of a compound at 10 μmol/L.

hERG channel (IKr) = molecular target: T2, hERG channel (IKr) (Homo sapiens, UniProt Q12809); assay: hERG test (whole-cell patch-clamp, IKr in HEK293 cells); assay type: cell-based; conditions: human, HEK293 cells expressing hERG channel, pH 7.4, inhibition of maximum tail current (IKr), compound 1 μM
T2 construct: expressed in transfected cells; host or cells: HEK293
Description: For the purpose of risk evaluation of QT interval extension of electrocardiogram, the activity on delayed rectification K^+ current (IKr), which plays an important role in a cardiac ventricle repolarization process, was examined using the HEK293 cell that was made to express human ether-a-go-go related gene (hERG) channel.
Using an automatic patch-clamp system (PatchXpress 7000A, Axon Instruments Inc.), by a whole-cell patch-clamp method, after the cell was maintained at a membrane potential of −80 mV, IKr induced upon applying depolarizing stimulation of +50 mV for 2 seconds and further applying repolarizing stimulation of −50 mV for 2 seconds was recorded. After generated electric current became stable, a test substance dissolved at an intended concentration in extracellular fluid (137 mmol/L NaCl, 4 mmol/L KCl, 1.8 mmol/L CaCl2.2H2O, 1 mmol/L MgCl2.6H2O, 10 mmol/L glucose, 10 mmol/L HEPES (4-(2-hydroxyethyl)-1-piperazineethanesulfonic acid), pH=7.4) was applied to the cell for 10 minutes under room temperature condition. From the obtained IKr, the absolute value of the maximum tail current was measured using analysis software (DataXpress ver. 1, Molecular Devices Corporation) and the value of the electric current in a maintained membrane potential as baseline. Moreover, an inhibition ratio for the maximum tail current prior to the application of the test substance was calculated and then compared with a group of media-application (0.1% dimethylsulfoxide solution) to evaluate influence of the test substance on IKr.

CYP3A4 = molecular target: T3, CYP3A4 (Homo sapiens, UniProt P08684); assay: CYP3A4 fluorescence MBI test; assay type: in vitro ADME; conditions: difference in IC50 with 0 or 30 minutes pre-reaction; CYP3A4 expressed in E. coli, substrate 7-BFC
T3 construct: host or cells: E. coli
Procedure: The CYP3A4 fluorescence MBI test is a test to examine the enhancement of CYP3A4 inhibition of a compound by a metabolic reaction. The test was performed using as an index, a reaction to produce a metabolite 7-hydroxytrifluoromethylcoumarin (HFC) which emits fluorescence, in which CYP3A4 expressed in E. coli was used as an enzyme and 7-benzyloxytrifluoromethylcoumarin (7-BFC) is debenzylated by CYP3A4 enzyme.
The reaction conditions are as follows: substrate: 5.6 μmol/L 7-BFC; pre-reaction time; 0 or 30 minutes; reaction time: 15 minutes; reaction temperature: 25° C. (room temperature); content of CYP3A4 (an enzyme expressed in E. coli): […] at the time of a pre-reaction and […] (when diluted 10 times) at the time of a reaction; the concentrations of a test drug: 0.625, 1.25, 2.5, 5, 10, and 20 μmol/L (6 points).
In a 96-well plate, an enzyme solution and a test drug solution were added as a pre-reaction solution into K-Pi buffer solution (pH 7.4) in the aforementioned ratio. A portion thereof was transferred to another 96-well plate to be diluted ten times with a substrate and a K-Pi buffer solution. A coenzyme, NADPH, was then added to start a reaction, which is the index (this is without a pre-reaction). After reacting for a predetermined time, 4:1 of acetonitrile: 0.5 mol/L Tris (trishydroxyaminomethane) was added to quench the reaction. To the remaining pre-reaction solution, NADPH was added to start a pre-reaction (this is with a pre-reaction). After pre-reacting for a predetermined time, a portion thereof was transferred to another plate to be diluted ten times with a substrate and K-Pi buffer solution, and thereby the index reaction is started. After reacting for a predetermined time, 4:1 of acetonitrile:0.5 mol/L Tris (trishydroxyaminomethane) was added to quench the reaction. For each plate in which the index reaction was carried out, the fluorescence value of a metabolite 7-HFC was measured with a fluorescent plate reader (Ex=420 nm, Em=535 nm).
The case wherein only DMSO (a solvent which dissolved a drug) was added to a reaction system was defined as a control (100%). When a test drug solution was added, the remaining activity (%) at each concentration was calculated, and then IC50 was calculated with a concentration and an inhibition ratio by an inverse estimation using a logistic model. When the difference in IC50 value is 5 μmol/L or more, the compound is shown as (+). When 3 μmol/L or less, the compound is shown as (−).

[2] = Metabolic stability test (pooled human liver microsome); assay type: in vitro ADME; conditions: percentage of test compound remained after 30 minutes, pooled human liver microsome 0.5 mg protein/mL, 1 mmol/L NADPH, 37° C., compound 0.5 μM
Procedure: After a subject compound was reacted for a certain time using a pooled human liver microsome commercially available, a reacted sample and an unreacted sample are compared to calculate a survival ratio, and then the degree of metabolism in the liver was evaluated.
0.2 mL of a buffer solution (50 mmol/L of Tris-HCl in pH 7.4, 150 mmol/L of potassium chloride, and 10 mmol/L of magnesium chloride) containing a human liver microsome of 0.5 mg protein/mL was reacted in the presence of 1 mmol/L NADPH at 37° C. for 0 or 30 minutes (oxidative reaction). After reacting, 50 μL of the reaction solution was added to 100 μL of a solution of methanol/acetonitrile (1/1 (v/v)), mixed, and then centrifuged at 3000 rpm for 15 minutes. The test compound in the supernatant was quantitated with LC/MS/MS. The amount of the compound at a reaction time of 0 minute was defined as 100% and, based on that, the percentage of the test compound remained after reacting for 30 minutes was calculated.

PI3Kγ [3] = molecular target: T1, PI3Kγ; assay: PI3Kγ inhibitory activity (Ki value); assay type: biochemical; conditions: read-out: PI3Kγ Ki value
Procedure: The PI3Kγ inhibitory activity (Ki value) of a compound was evaluated according to the following procedure:
5 μL of a compound solution containing 10% DMSO and […] of a compound was changed to 5 μL of a compound solution containing 10% DMSO and either 200, 64, 20, 6.4, 2, 0.64, or 0.20 μmol/L of the compound (optionally, this is diluted to a lower concentration). Using a method similar to the method for measuring PI3Kγ inhibitory activity, inhibition ratios of PI3Kγ were measured in the presence of the compound at 50, 16, 5, 1.6, 0.5, 0.16, and 0.05 μmol/L (optionally, a lower concentration). Then an IC50 value was calculated by a logistic approximation method or the linear regression method using two concentrations that cross 50% inhibition. Separately, the ATP concentration in the reaction solution (40 μmol/L ATP, 10 mmol/L MgCl2, 5 mmol/L DTT) at the time of the start of a reaction in the absence of the compound was changed to 80, 40, 20, 10, 5, 2.5, 1.25, or 0.625 μmol/L. Then, HTRF ratios were measured by a similar method. The value obtained by subtracting the HTRF ratio at each ATP concentration from the HTRF ratio in the absence of PI-3 kinase y was defined as the value obtained by multiplying reaction rate (v) at each ATP concentration with a constant. The Michaelis-Menten constant Km was then calculated by the Lineweaver-Burk plot method. The Ki value of a compound was calculated by the following formula wherein “μM” denotes “μmol/L.”
Ki value ═IC50 value/(1+test ATP concentration (μM)/Km (μM))

T2 sequence (Q12809 whole entry): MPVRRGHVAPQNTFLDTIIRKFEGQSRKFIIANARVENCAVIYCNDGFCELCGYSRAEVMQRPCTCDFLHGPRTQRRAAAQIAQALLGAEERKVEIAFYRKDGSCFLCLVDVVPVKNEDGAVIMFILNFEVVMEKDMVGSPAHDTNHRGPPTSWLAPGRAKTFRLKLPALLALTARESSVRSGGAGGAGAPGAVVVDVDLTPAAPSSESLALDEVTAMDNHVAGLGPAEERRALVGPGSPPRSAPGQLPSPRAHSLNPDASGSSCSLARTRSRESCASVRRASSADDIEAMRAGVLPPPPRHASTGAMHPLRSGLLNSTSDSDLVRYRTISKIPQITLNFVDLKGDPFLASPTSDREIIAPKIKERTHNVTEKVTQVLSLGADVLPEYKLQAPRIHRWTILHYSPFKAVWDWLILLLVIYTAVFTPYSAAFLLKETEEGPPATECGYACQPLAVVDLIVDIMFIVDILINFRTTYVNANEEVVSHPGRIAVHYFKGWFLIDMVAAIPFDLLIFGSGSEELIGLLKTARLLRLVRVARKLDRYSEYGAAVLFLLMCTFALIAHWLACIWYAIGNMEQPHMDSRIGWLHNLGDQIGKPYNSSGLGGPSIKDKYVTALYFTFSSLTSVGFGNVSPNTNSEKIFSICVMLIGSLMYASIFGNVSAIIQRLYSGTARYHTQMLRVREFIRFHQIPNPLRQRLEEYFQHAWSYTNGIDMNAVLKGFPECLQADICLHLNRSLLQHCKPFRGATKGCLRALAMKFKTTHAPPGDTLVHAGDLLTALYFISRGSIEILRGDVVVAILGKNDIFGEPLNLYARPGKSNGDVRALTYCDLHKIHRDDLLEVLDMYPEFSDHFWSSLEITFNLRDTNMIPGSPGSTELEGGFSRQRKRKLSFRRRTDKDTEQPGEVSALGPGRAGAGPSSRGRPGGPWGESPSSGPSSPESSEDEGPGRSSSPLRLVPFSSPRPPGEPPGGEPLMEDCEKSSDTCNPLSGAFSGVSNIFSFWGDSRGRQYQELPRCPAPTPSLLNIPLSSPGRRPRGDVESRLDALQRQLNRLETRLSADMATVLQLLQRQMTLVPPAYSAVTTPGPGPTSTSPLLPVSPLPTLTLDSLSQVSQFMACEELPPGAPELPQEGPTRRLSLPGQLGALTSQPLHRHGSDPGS
T1 sequence (P48736 whole entry, species assumed): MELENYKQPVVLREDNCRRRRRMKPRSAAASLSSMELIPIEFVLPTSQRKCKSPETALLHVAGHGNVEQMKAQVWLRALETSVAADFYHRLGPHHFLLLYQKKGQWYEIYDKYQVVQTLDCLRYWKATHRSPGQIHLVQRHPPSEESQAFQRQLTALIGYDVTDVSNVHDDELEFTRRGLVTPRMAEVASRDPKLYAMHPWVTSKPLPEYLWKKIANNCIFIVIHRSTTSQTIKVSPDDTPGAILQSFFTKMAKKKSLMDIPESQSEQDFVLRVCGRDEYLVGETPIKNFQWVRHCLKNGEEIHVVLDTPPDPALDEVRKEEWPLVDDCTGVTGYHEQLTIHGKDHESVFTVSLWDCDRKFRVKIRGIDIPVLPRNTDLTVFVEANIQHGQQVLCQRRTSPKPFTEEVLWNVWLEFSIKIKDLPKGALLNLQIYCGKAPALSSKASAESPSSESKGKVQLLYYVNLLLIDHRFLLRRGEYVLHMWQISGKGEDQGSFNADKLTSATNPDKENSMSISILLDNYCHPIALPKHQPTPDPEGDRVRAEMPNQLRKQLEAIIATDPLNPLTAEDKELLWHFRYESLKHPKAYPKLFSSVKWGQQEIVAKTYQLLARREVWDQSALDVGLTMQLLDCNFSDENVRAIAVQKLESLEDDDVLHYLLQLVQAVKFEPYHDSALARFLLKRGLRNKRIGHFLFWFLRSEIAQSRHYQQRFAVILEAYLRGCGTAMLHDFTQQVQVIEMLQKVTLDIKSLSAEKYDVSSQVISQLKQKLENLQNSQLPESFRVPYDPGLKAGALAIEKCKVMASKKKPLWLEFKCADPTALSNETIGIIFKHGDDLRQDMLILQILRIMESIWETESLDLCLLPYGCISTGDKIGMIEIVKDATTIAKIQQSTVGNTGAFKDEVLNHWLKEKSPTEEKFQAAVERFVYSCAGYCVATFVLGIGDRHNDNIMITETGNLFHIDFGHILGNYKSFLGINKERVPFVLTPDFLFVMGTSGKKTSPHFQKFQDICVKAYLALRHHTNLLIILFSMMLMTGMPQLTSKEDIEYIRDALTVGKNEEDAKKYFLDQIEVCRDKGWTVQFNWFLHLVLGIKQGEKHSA
T3 sequence (P08684 whole entry): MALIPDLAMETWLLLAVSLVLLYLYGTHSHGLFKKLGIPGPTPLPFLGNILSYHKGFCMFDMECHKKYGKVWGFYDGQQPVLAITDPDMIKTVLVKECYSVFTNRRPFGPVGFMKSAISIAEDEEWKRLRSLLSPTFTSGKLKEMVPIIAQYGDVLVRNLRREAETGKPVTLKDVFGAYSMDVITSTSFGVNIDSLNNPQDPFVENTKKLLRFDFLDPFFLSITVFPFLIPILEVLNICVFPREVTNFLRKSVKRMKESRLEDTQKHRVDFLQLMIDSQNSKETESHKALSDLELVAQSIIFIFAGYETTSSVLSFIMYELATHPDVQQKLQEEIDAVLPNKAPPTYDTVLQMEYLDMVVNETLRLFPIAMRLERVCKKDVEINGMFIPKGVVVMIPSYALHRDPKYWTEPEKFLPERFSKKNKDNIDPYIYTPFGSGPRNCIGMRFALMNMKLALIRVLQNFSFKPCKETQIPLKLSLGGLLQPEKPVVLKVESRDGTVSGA

SMILES	inhibition at 10 µM (PI3Kγ [1]) [%]	inhibition at 10 min, 1 µM (hERG channel (IKr)) [%]	MBI (CYP3A4)	hLMS_ox(at 0.5 μM) % [2] [%]	Ki (PI3Kγ [3]) [nM]
COc1cc(N2CCc3nc(NC(=O)Nc4ccccc4C(=O)NC4CC4)sc3C2)nc(OC)n1 [Compound I-16]	92	9.3			
COc1cc(N2CCc3nc(NC(=O)NC4=C(C(=O)NC(C)C)CCC4)sc3C2)nc(OC)n1 [Compound I-29]	≥ 95	8.7	(−) (When 3 μmol/L or less, the compound is shown as (−))		
COc1nc(N(C)C)cc(N2CCc3nc(NC(=O)Nc4ccccc4C(=O)NC(C)C)sc3C2)n1 [Compound I-41]		5.6			
COc1cc(N2CCc3nc(NC(=O)Nc4ccccc4OC(C)C)sc3C2)nc(OC)n1 [Compound I-48]		3.2			
COc1nc(Cl)cc(N2CCc3nc(NC(=O)Nc4ccccc4C(=O)NC(C)C)sc3C2)n1 [Compound I-53]		5.1	(−) (When 3 μmol/L or less, the compound is shown as (−))		
COc1cc(N2CCc3nc(NC(=O)Nc4ccccc4OCCC(C)C)sc3C2)nc(OC)n1 [Compound I-55]		7.7			
CCNC(=O)c1ccccc1NC(=O)Nc1nc2c(s1)CN(c1cc(OC)nc(OC)n1)CC2 [Compound I-57]		5.3	(−) (When 3 μmol/L or less, the compound is shown as (−))	83.5	
COc1cc(N2CCc3nc(NC(=O)Nc4ccccc4C(=O)NC(C)C)sc3C2)cnc1OC [Compound I-80]		5.5		82.1	
CCNC(=O)c1ccncc1NC(=O)Nc1nc2c(s1)CN(c1cc(Cl)nc(OC)n1)CC2 [Compound I-92]		2.4			
CCNC(=O)c1ccccc1NC(=O)Nc1nc2c(s1)CN(c1cc(Cl)nc(OC)n1)CC2 [Compound I-93]	≥ 95	6.8	(−) (When 3 μmol/L or less, the compound is shown as (−))		
CCNC(=O)c1ccncc1NC(=O)Nc1nc2c(s1)CN(c1cc(OC)nc(OC)n1)CC2 [Compound I-94]	≥ 95	6.8	(−) (When 3 μmol/L or less, the compound is shown as (−))		
COc1nccc(N2CCc3nc(NC(=O)Nc4ccccc4C(=O)NC(C)C)sc3C2)n1 [Compound I-95]	≥ 95	3.7			
COc1cc(N2CCc3nc(NC(=O)Nc4ccccc4C(=O)N[C@@H](C)CO)sc3C2)nc(OC)n1 [Compound I-101]	≥ 95	9.6		91.9	
COc1cc(N2CCc3nc(NC(=O)Nc4ccccc4C(=O)N[C@H](C)CO)sc3C2)nc(OC)n1 [Compound I-102]	≥ 95	8.8		84.2	
COc1cncc(-c2ccc3nc(NC(=O)Nc4ccccc4C(=O)NC(C)C)cn3n2)c1 [Compound I-111]		2.4	(−) (When 3 μmol/L or less, the compound is shown as (−))		
CCCCc1ccccc1NC(=O)Nc1nc2c(s1)CN(c1cc(OC)nc(OC)n1)CC2 [Compound I-150]		3			
Cc1nc(NC(=O)Nc2ccccc2OCCC(C)C)sc1-c1csc(S(=O)(=O)N(C)CCN(C)C)c1 [Compound I-192]	94				480
COc1cncc(-c2cc(NC(=O)Nc3ccccc3OCCC(C)C)nn2C)c1 [Compound I-221]	≥ 95				680

— patent US20120071475A1, “UREA DERIVATIVES HAVING PI3K-INHIBITING ACTIVITY” (SHIONOGI & CO., LTD., priority 2009, published 2012)
